From ChEMBL document CHEMBL1201862, “PubChem BioAssay data set” (2004)
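Values below derive from 48-hour exposures of cells grown in 96-well plates, with endpoints linearly interpolated between the two concentrations bracketing the appropriate inhibition level. The concentration for 50% growth inhibition is given as GI50.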 Calls of active or inactive are those of the source. Cut-off read from the data, not from the text of the source: active = GI50 up to about 1.1 µM and inactive = higher.

Assays:
Test in all cases: inhibition of tumour cell growth, NCI panel, 48 h
PC-3 = test system: PC-3
TK-10 = test system: TK-10
SNB-75 = test system: SNB-75
HCT-116 = test system: HCT-116
OVCAR-3 = test system: OVCAR-3
LXFL 529 = test system: LXFL 529
NCI/ADR-RES = test system: NCI/ADR-RES
HL-60 = test system: HL-60
DMS-273 = test system: DMS-273
SNB-19 = test system: SNB-19
LOX IMVI = test system: LOX IMVI
OVCAR-8 = test system: OVCAR-8
Malme-3M = test system: Malme-3M
HOP-62 = test system: HOP-62
OVCAR-4 = test system: OVCAR-4
HOP-92 = test system: HOP-92
DLD-1 = test system: DLD-1
OVCAR-5 = test system: OVCAR-5
MCF7 = test system: MCF7
NCI-H23 = test system: NCI-H23
UO-31 = test system: UO-31
SF-268 = test system: SF-268
HCT-15 = test system: HCT-15
786-0 = test system: 786-0
UACC-62 = test system: UACC-62
A498 = test system: A498
DU-145 = test system: DU-145
HT-29 = test system: HT-29
NCI-H460 = test system: NCI-H460
XF498 = test system: XF498
NCI-H226 = test system: NCI-H226
NCI-H522 = test system: NCI-H522
M19-MEL = test system: M19-MEL
RPMI-8226 = test system: RPMI-8226
SN12C = test system: SN12C
HCC 2998 = test system: HCC 2998
ACHN = test system: ACHN
KM-20L2 = test system: KM-20L2
MDA-N = test system: MDA-N
KM12 = test system: KM12
DMS-114 = test system: DMS-114
U-251 = test system: U-251
MDA-MB-435 = test system: MDA-MB-435
HOP-18 = test system: HOP-18
SK-MEL-28 = test system: SK-MEL-28
T47D = test system: T47D
SK-OV-3 = test system: SK-OV-3
MOLT-4 = test system: MOLT-4
K562 = test system: K562
CCRF-CEM = test system: CCRF-CEM
IGROV-1 = test system: IGROV-1
MDA-MB-231 = test system: MDA-MB-231
A549 = test system: A549
SR = test system: SR
SK-MEL-5 = test system: SK-MEL-5
SK-MEL-2 = test system: SK-MEL-2
COLO 205 = test system: COLO 205
EKVX = test system: EKVX
BT-549 = test system: BT-549
UACC-257 = test system: UACC-257
SF-539 = test system: SF-539
RXF 393 = test system: RXF 393
SNB-78 = test system: SNB-78
RXF 631 = test system: RXF 631
SW-620 = test system: SW-620
SF-295 = test system: SF-295
M14 = test system: M14

Compound: CC1(C)OCN(c2ccc(Cl)cc2)Cn2c1nc1ccccc12
- GI50 (PC-3): 1.94 µM (inactive)
- GI50 (TK-10): > 100 µM (inactive)
- GI50 (SNB-75): > 100 µM (inactive)
- GI50 (HCT-116): 15.3 µM (inactive)
- GI50 (OVCAR-3): > 51.9 µM (inactive)
- GI50 (LXFL 529): 1.31 µM (inactive)
- GI50 (NCI/ADR-RES): 27 µM (inactive)
- GI50 (HL-60): 11.2 µM (inactive)
- GI50 (DMS-273): 1.68 µM (inactive)
- GI50 (SNB-19): > 71.3 µM (inactive)
- GI50 (LOX IMVI): 3.21 µM (inactive)
- GI50 (OVCAR-8): 69 µM (inactive)
- GI50 (Malme-3M): > 100 µM (inactive)
- GI50 (HOP-62): > 27.3 µM (inactive)
- GI50 (OVCAR-4): 51.4 µM (inactive)
- GI50 (HOP-92): > 80.9 µM (inactive)
- GI50 (DLD-1): 7.6 µM (inactive)
- GI50 (OVCAR-5): > 100 µM (inactive)
- GI50 (MCF7): 58.9 µM (inactive)
- GI50 (NCI-H23): 18.1 µM (inactive)
- GI50 (UO-31): 9.79 µM (inactive)
- GI50 (SF-268): 15.8 µM (inactive)
- GI50 (HCT-15): 0.431 µM
- GI50 (786-0): > 89.9 µM (inactive)
- GI50 (UACC-62): 1.41 µM (inactive)
- GI50 (A498): 48.9 µM (inactive)
- GI50 (DU-145): 6.85 µM (inactive)
- GI50 (HT-29): > 100 µM (inactive)
- GI50 (NCI-H460): > 21.7 µM (inactive)
- GI50 (XF498): 82.4 µM (inactive)
- GI50 (NCI-H226): > 100 µM (inactive)
- GI50 (NCI-H522): 12.6 µM (inactive)
- GI50 (M19-MEL): 71 µM (inactive)
- GI50 (RPMI-8226): 19 µM (inactive)
- GI50 (SN12C): 70.5 µM (inactive)
- GI50 (HCC 2998): 3.56 µM (inactive)
- GI50 (ACHN): 31.8 µM (inactive)
- GI50 (KM-20L2): 1.82 µM (inactive)
- GI50 (MDA-N): 3.05 µM (inactive)
- GI50 (KM12): 1.61 µM (inactive)
- GI50 (DMS-114): 21.2 µM (inactive)
- GI50 (U-251): 22.3 µM (inactive)
- GI50 (MDA-MB-435): 0.611 µM (active)
- GI50 (HOP-18): > 100 µM (inactive)
- GI50 (SK-MEL-28): > 19.9 µM (inactive)
- GI50 (T47D): > 100 µM (inactive)
- GI50 (SK-OV-3): > 100 µM (inactive)
- GI50 (MOLT-4): 11.6 µM (inactive)
- GI50 (K562): 0.904 µM (active)
- GI50 (CCRF-CEM): 11.4 µM (inactive)
- GI50 (IGROV-1): 2.44 µM (inactive)
- GI50 (MDA-MB-231): 3.18 µM (inactive)
- GI50 (A549): 6.44 µM (inactive)
- GI50 (SR): 9.25 µM (inactive)
- GI50 (SK-MEL-5): 0.571 µM (active)
- GI50 (SK-MEL-2): > 54 µM (inactive)
- GI50 (COLO 205): 3.34 µM (inactive)
- GI50 (EKVX): 63 µM (inactive)
- GI50 (BT-549): > 100 µM (inactive)
- GI50 (UACC-257): 39.1 µM (inactive)
- GI50 (SF-539): 6.5 µM (inactive)
- GI50 (RXF 393): 62.1 µM (inactive)
- GI50 (SNB-78): > 100 µM (inactive)

Compound: O=C1CC(C2(O)C(=O)Nc3ccc([N+](=O)[O-])cc32)c2ccccc21 (centres undefined)
- GI50 (TK-10): > 100 µM (inactive)
- GI50 (SNB-75): 39.5 µM (inactive)
- GI50 (HCT-116): 31.3 µM (inactive)
- GI50 (OVCAR-3): 25.4 µM (inactive)
- GI50 (LXFL 529): 16.3 µM (inactive)
- GI50 (HL-60): 14.8 µM (inactive)
- GI50 (DMS-273): 20.9 µM (inactive)
- GI50 (RXF 631): 16.4 µM (inactive)
- GI50 (SW-620): 28.2 µM (inactive)
- GI50 (SNB-19): > 100 µM (inactive)
- GI50 (LOX IMVI): 16.8 µM (inactive)
- GI50 (OVCAR-8): 66.4 µM (inactive)
- GI50 (Malme-3M): 40.8 µM (inactive)
- GI50 (HOP-62): 64 µM (inactive)
- GI50 (OVCAR-4): 20 µM (inactive)
- GI50 (HOP-92): 35 µM (inactive)
- GI50 (DLD-1): 40 µM (inactive)
- GI50 (OVCAR-5): > 100 µM (inactive)
- GI50 (NCI-H23): 26.7 µM (inactive)
- GI50 (UO-31): > 100 µM (inactive)
- GI50 (SF-295): 34.1 µM (inactive)
- GI50 (SF-268): 18.5 µM (inactive)
- GI50 (HCT-15): 18.2 µM
- GI50 (786-0): 15.8 µM (inactive)
- GI50 (UACC-62): 19.5 µM (inactive)
- GI50 (A498): 72.8 µM (inactive)
- GI50 (M14): 18.9 µM (inactive)
- GI50 (HT-29): 22.5 µM (inactive)
- GI50 (NCI-H460): 16.3 µM (inactive)
- GI50 (NCI-H226): 14.7 µM (inactive)
- GI50 (NCI-H522): 11.2 µM (inactive)
- GI50 (M19-MEL): 29.2 µM (inactive)
- GI50 (RPMI-8226): 20.7 µM (inactive)
- GI50 (SN12C): 31.8 µM (inactive)
- GI50 (HCC 2998): 20.6 µM (inactive)
- GI50 (ACHN): 54.1 µM (inactive)
- GI50 (KM12): 35.4 µM (inactive)
- GI50 (DMS-114): 9.48 µM (inactive)
- GI50 (U-251): 17.7 µM (inactive)
- GI50 (HOP-18): 28.1 µM (inactive)
- GI50 (SK-MEL-28): 24.8 µM (inactive)
- GI50 (SK-OV-3): 36.5 µM (inactive)
- GI50 (MOLT-4): 20.7 µM (inactive)
- GI50 (K562): 19.7 µM (inactive)
- GI50 (CCRF-CEM): 19.5 µM (inactive)
- GI50 (IGROV-1): 17.8 µM (inactive)
- GI50 (A549): 62.4 µM (inactive)
- GI50 (SR): 18.2 µM (inactive)
- GI50 (SK-MEL-5): 27.7 µM (inactive)
- GI50 (SK-MEL-2): 16.6 µM (inactive)
- GI50 (COLO 205): 25.4 µM (inactive)
- GI50 (EKVX): 28.6 µM (inactive)
- GI50 (UACC-257): 47.1 µM (inactive)
- GI50 (SF-539): 32.5 µM (inactive)
- GI50 (RXF 393): 24.8 µM (inactive)
- GI50 (SNB-78): 31.6 µM (inactive)
